In PMC7179205, “An Improved Synthesis of Key Intermediate to the Formation of Selected Indolin-2-Ones Derivatives Incorporating Ultrasound and Deep Eutectic Solvent (DES) Blend of Techniques, for Some Biological Activities and Molecular Docking Studies” (Molecules, 2020):
Entries after “also recorded” stand apart in the source; their conditions may differ. Where two headings read alike, the source gives them in different places.

Key:
[1] = tested on: Rat Paw Edema; test: carrageenan-induced hind paw edema method (anti-inflammatory activity); type: in vivo, Wistar albino rats; conditions: for inhibition in vivo at 10 mg/kg: Rattus norvegicus, po; for inhibition in vivo at 10 mg/kg / anti-inflammatory activity (in words) / % Age Inhibition of Rat Paw Edema, 4 H: oral dose 10 mg/kg; for inhibition in vivo at 10 mg/kg / % Age Inhibition of Rat Paw Edema, 4 H: mean ± SEM; for anti-inflammatory activity (in words): compared with standard indomethacin; for Potency (anti-inflammatory): relative to indomethacin = 1.00
Description: The anti-inflammatory activity of the synthesized compounds (4a–n) was evaluated by the carrageenan-induced paw edema method. An oral dose of 10 mg/kg was used for compounds and compared with the standard. Anti-inflammatory activity was accessed through percentage inhibition after 2 and 4 h (Table 1).
Compounds produced were assessed for their anti-inflammatory activity using the carrageenan-induced hind paw edema method. The anti-inflammatory activity was carried out using Wistar albino rats of either sex (150–220 g) using a Digital Plethysmometer (Model No. 7140, UGO BASILE). The edema was induced by using 1% carrageenan solution. Indomethacin was used as a standard drug. The anti-inflammatory activity of the standard drug and tested compounds was determined at a dose of 10 mg/kg body weight. The animals were divided into groups containing six animals each and the initial paw volume of each rat was noted by the NaCl displacement method. One group was kept as control, one as standard, and the rest of the groups of compounds were to be tested. To the control group, 1% CMC solution was administered p.o. To the standard group, the standard drug was administered orally. To the test group, tested compounds were administered orally. After 60 min of the 1% CMC solution/standard drug/test compound administration, 0.1 ml of 1% (w/v) carrageenan was injected in the plantar region of the hind limb (right) of all the rats in each group including the control group. The paw volume was again measured after the time interval of 2 and 4 h. Using the following formula, inflammation was calculated as percentage inhibition for the test and reference compounds
(Final foot volume of control—final foot volume of std./test) × 100 / final foot volume of control)

[2] = tested on: acetic acid-induced writhing; test: acetic acid-induced writhing method (analgesic activity); type: in vivo, Swiss albino mice; conditions: for inhibition in vivo at 10 mg/kg: Mus musculus, read-out: % Analgesic Activity; for Potency (analgesic): relative to indomethacin = 1.00, 10 mg/kg; for Mean with ± SEM: writhes counted for 15 min; for analgesic activity (in words): compared with standard indomethacin
Description: All the tested compounds and standard drugs are evaluated at 10 mg/kg oral dose.
The analgesic activity of the tested compounds was carried out by acetic acid-induced writhing method as given in the literature using Swiss albino mice of either sex (25–35 g). The writh were induced in the albino mice using an intraperitoneal injection of 1% acetic acid solution. The standard drug indomethacin and test compounds were evaluated at a concentration of 10 mg/kg of the body weight. The animals were divided into groups and each group consisted of six animals. One group was kept as control, one as standard, and other as test groups. To the control group, 0.1% CMC solution was administered p.o; to the standard group, the standard drug was administered orally, and to the test group, test compounds were administered orally. After 60 min of the 0.1% CMC solution/standard drug/tested compound administration, 0.1 ml of 1% (v/v) acetic acid solution in distilled water was injected intraperitoneally in all the mice in each group including the control group. The writhing (a contraction of the abdomen, turning of trunk, and extension of hind limbs) was counted after 5 min of acetic acid administration and were counted for a period of 15 min. The percentage of analgesic activity was calculated using the following formula.
(Mean wriths of control—mean wriths of std./test) / mean wriths of control) × 100

[3] = 2 h, 2 h, read-out: % Age Inhibition of Rat Paw Edema, 2 H
[4] = 4 h, 4 h, read-out: % Age Inhibition of Rat Paw Edema, 4 H

Row | Compound | inhibition in vivo at 10 mg/kg [1, 3] [%] | inhibition in vivo at 10 mg/kg [1, 4] [%] | anti-inflammatory activity (in words) [1] | Potency (anti-inflammatory) ([1]; 10 mg/kg) | inhibition in vivo at 10 mg/kg ([2]; oral dose 10 mg/kg, mean ± SEM) [%] | Potency (analgesic) [2] | Mean with ± SEM ([2]; oral dose 10 mg/kg) | melting point [°C] | % Age Inhibition of Rat Paw Edema, 4 H ([1]; 4 h, 10 mg/kg) [%] | anti-inflammatory activity (in words) ([1]; 10 mg/kg) | inhibition in vivo at 10 mg/kg ([2]; po) [%] | analgesic activity (in words) ([2]; oral dose 10 mg/kg)
1 | O=C1C(=NNc2nc(-c3cc4ccccc4oc3=O)cs2)c2ccccc2N1CNc1ccccc1 [Compound 4a, 3-{[4-(2-Oxo-2H-chromen-3-yl)-thiazol-2-yl]-hydrazono}-1-phenylaminomethyl-1,3-dihydro-indol-2-one] | 38.29 ± 0.016 | 5.57 ± 0.041 | negligible anti-inflammatory activity | 0.06 | 47.5 ± 0.707 | 0.64 | 17.00 ± 0.2582 | 245 to 247 |  |  |  | 
2 | O=C1C(=NNc2nc(-c3cc4ccccc4oc3=O)cs2)c2ccccc2N1CNc1ccc(F)cc1 [Compound 4b, 1-[(4-Fluoro-phenylamino)-methyl]-3-{[4-(2-oxo-2H-chromen-3-yl)-thiazol-2-yl]-hydrazono}-1,3-dihydro-indol-2-one] | 59.3 ± 0.73 | 45.81 ± 0.069 |  | 0.55 | 25.9 ± 0.58 | 0.35 | 24.00 ± 0.3651 | 242 to 244 |  |  |  | 
3 | O=C1C(=NNc2nc(-c3cc4ccccc4oc3=O)cs2)c2ccccc2N1CNc1ccc(Br)cc1 [Compound 4d, 1-[(4-Bromo-phenylamino)-methyl]-3-{[4-(2-oxo-2H-chromen-3-yl)-thiazol-2-yl]-hydrazono}-1,3-dihydro-indol-2-one] | 51.92 ± 0.337 | 6.98 ± 0.315 | negligible anti-inflammatory activity | 0.08 | 42.9 ± 0.71 | 0.58 | 18.50 ± 0.4282 | 241 to 243 |  |  |  | 
4 | O=C1C(=NNc2nc(-c3cc4ccccc4oc3=O)cs2)c2ccccc2N1CNc1ccccc1[N+](=O)[O-] [Compound 4e, 1-[(2-Nitro-phenylamino)-methyl]-3-{[4-(2-oxo-2H-chromen-3-yl)-thiazol-2-yl]-hydrazono}-1,3-dihydro-indol-2-one] | 62.24 ± 0.08 | 48.6 ± 0.09 |  | 0.59 | 47.9 ± 1 | 0.65 | 16.88 ± 0.222 | 244 to 246 |  |  |  | 
5 | O=C1C(=NNc2nc(-c3cc4ccccc4oc3=O)cs2)c2ccccc2N1CNc1ccc([N+](=O)[O-])cc1[N+](=O)[O-] [Compound 4g, 1-[(2,4-Dinitro-phenylamino)-methyl]-3-{[4-(2-oxo-2H-chromen-3-yl)-thiazol-2-yl]-hydrazono}-1,3-dihydro-indol-2-one] | 53.57 ± 0.16 | 77.9 |  | 0.94 |  | 0.51 | 20.09 ± 0.3561 | 247 to 249 | 77.94 ± 0.184 | good anti-inflammatory activity; also recorded: significant anti-inflammatory activity | 38 ± 1 | 
6 | O=C1C(=NNc2nc(-c3cc4ccccc4oc3=O)cs2)c2ccccc2N1CNn1cnnc1 [Compound 4h, 3-{[4-(2-Oxo-2H-chromen-3-yl)-thiazol-2-yl]-hydrazono}-1-([1,2,4]triazol-4-ylaminomethyl)-1,3-dihydro-indol-2-one] | 35.39 ± 0.273 | 64.69 ± 0.245 |  | 0.78 | 26.5 ± 0.317 | 0.35 | 23.83 ± 0.3073 | 236 to 238 |  |  |  | steep decrease in analgesic activity
7 | O=C1C(=NNc2nc(-c3cc4ccccc4oc3=O)cs2)c2ccccc2N1CNc1ccncc1 [Compound 4j, 3-{[4-(2-Oxo-2H-chromen-3-yl)-thiazol-2-yl]-hydrazono}-1-(pyridine-4-ylaminomethyl)-1,3-dihydro-indol-2-one] | 53.81 ± 0.12 | 77.9 |  | 0.94 | 47.14 ± 0.402 | 0.64 | 17.13 ± 0.539 | 237 to 239 |  | good anti-inflammatory activity; also recorded: significant anti-inflammatory activity |  | 
8 | O=C1C(=NNc2nc(-c3cc4ccccc4oc3=O)cs2)c2ccccc2N1CNc1cccnc1 [Compound 4k, 3-{[4-(2-Oxo-2H-chromen-3-yl)-thiazol-2-yl]-hydrazono}-1-(pyridine-3-ylaminomethyl)-1,3-dihydro-indol-2-one] | 38.09 ± 0.214 | 70.8 | significant anti-inflammatory activity | 0.86 | 7.96 ± 0.432 | 0.10 | 29.83 ± 0.3073 | 231 to 233 | 70.75 ± 0.165 |  |  | least analgesic activity
9 | O=C1C(=NNc2nc(-c3cc4ccccc4oc3=O)cs2)c2ccccc2N1CNc1ccc([N+](=O)[O-])cc1 [Compound 4l, 1-[(4-Nitro-phenylamino)-methyl]-3-{[4-(2-oxo-2H-chromen-3-yl)-thiazol-2-yl]-hydrazono}-1,3-dihydro-indol-2-one] | 54.76 ± 0.228 | 80.9 |  | 0.98 | 44.98 ± 0.336 | 0.61 | 17.83 ± 0.3079 | 241 to 243 | 80.94 ± 0.149 | good anti-inflammatory activity; also recorded: highest anti-inflammatory activity |  | 
10 | Cc1ccc(NCN2C(=O)C(=NNc3nc(-c4cc5ccccc5oc4=O)cs3)c3ccccc32)cc1 [Compound 4m, 3-{[4-(2-Oxo-2H-chromen-3-yl)-thiazol-2-yl]-hydrazono}-1-(p-tolylamino-methyl)-1,3-dihydro-indol-2-one] | 53.27 ± 0.183 | 78.4 |  | 0.95 | 32.6 ± 0.845 | 0.44 | 21.83 ± 0.2051 | 244 to 246 | 78.42 ±0.183 | good anti-inflammatory activity; also recorded: significant anti-inflammatory activity; also recorded: better anti-inflammatory activity |  | less analgesic activity
